The assay relates to human SIRT6 promoter. Kind of assay: SIRT6 promoter activity in Caco-2-SIRT6p-EGFP reporter cells. Type of assay: cell-based. Particulars: Caco-2-SIRT6p-EGFP cells, 10 μM test component, two days after addition, EGFP fluorescence, relative ratio to control (PBS); FIG. 1. The text has this: The human SIRT6 promoter region (from −1105 to −1 bp; SEQ ID NO: 1) was amplified by PCR using KOD FX (TOYOBO, Tokyo, Japan) with genomic DNA derived from human fetal fibroblast TIG-1 as a template. Primers used were obtained by adding restriction endonuclease recognition sequences of AseI and NheI to the ends based on the reported base sequence information of the hSIRT6 promoter. Specifically, […] designed as SIRT6p-AseI ([…]: SEQ ID NO: 2) and SIRT6p-NheI ([…]: SEQ ID NO: 3) were used. KOD FX (TOYOBO) was used as the DNA polymerase, and PCR was performed under reaction conditions of 40 cycles with one cycle of 94° C. for 2 minutes, 98° C. for 10 seconds, and 68° C. for 1 minute.
The SIRT6 promoter fragment obtained by PCR was TA-cloned into a pGEM-T Easy Vector (Promega Corporation). In addition, the base sequence was confirmed by sequencing. The SIRT6 promoter fragment incorporated into the pGEM-T Easy vector was excised by digestion with restriction enzymes AseI and NheI and inserted into a site of EGFP-C3 (available from Takara Bio Inc.) from which the CMV promoter had been removed by AseI and NheI digestion, and pSIRT6p-EGFP was obtained.
Transfection was performed using HilyMax available from DOJINDO in accordance with its protocol. On the day before transfection, 6.0×10^5 cells of Caco-2 cells (human colon cancer-derived cells; obtained from RIKEN BioResource Research Center) were seeded in a 5-mL dish. On the day of transfection, pSIRT6p-EGFP (15 μg) was diluted with DMEM medium containing 10% FBS to a volume of 300 μL in a 1.5-mL tube, then 70 μL of Hilymax was added to the tube, and the mixture was incubated at room temperature for 20 minutes. Thereafter, the whole amount was added to Caco-2 cells and cultured for 48 hours.
Based on the fact that pSIRT6p-EGFP is resistant to the drug G418 (available from Wako Pure Chemical Industries, Ltd.), drug selection was performed by adding the drug G418 to transfected cells to a final concentration of 800 μg/mL. The culture medium was replaced with a fresh culture medium every 3 days, and G418 was added at the same concentration each time. Caco-2-SIRT6p-EGFP cells were obtained from this.
Using Caco-2-SIRT6p-EGFP cells, a urolithin was examined for its enhancing effect on the promoter of the sirtuin 6 gene SIRT6. […]
Caco-2-SIRT6p-EGFP cells were seeded in a 96-well plate at 0.6×10^4 cells/well. […] This was followed by aspiration and addition of 100 μL of PBS to each well, and the fluorescence intensity was measured with an IN Cell Analyzer 1000 (GE-Healthcare, Amersham Place, UK). The promoter activity was expressed as a relative ratio to the control activity.
As to `O=C1OC[C@H]2OC(O)[C@H](O)[C@@H](O)[C@@H]2OC(=O)c2cc(O)c(O)c(O)c2-c2c(O)c(O)c3oc(=O)c4c(c(O)c(O)c5oc(=O)c2c3c54)-c2c1cc(O)c(O)c2O` (mixture of isomers) [punicalin], the “relative SIRT6 promoter activity (SIRT6 promoter-enhancing activity)” value (“relative SIRT6 promoter activity” for short) is reported as “no or little SIRT6 promoter-enhancing activity”.
In the case of `C[C@@]12CCc3occc3[C@H]1CC[C@@]13C[C@@H](CC[C@H]12)[C@@](O)(CO)C3` [cafestol], the “relative SIRT6 promoter activity” value is reported as “no or little SIRT6 promoter-enhancing activity”.
For the molecule `O=c1oc2cc(O)ccc2c2ccc(O)cc12` [urolithin A], the “relative SIRT6 promoter activity” value is given as “strong SIRT6 promoter-enhancing activity”.
With puricalagin the entry was “no or little SIRT6 promoter-enhancing activity”.

The values are drawn from US20240000747A1, “SIRTUIN 6 ACTIVATOR” (DAICEL CORPORATION, priority 2020, published 2024).
